In EP3661951B1, “GENES AND METHODS FOR BIOTECHNOLOGICAL PRODUCTION AND COMPARTMENTALIZATION OF HIGH ADDED VALUE APOCAROTENOIDS” (Agenzia Nazionale Per Le Nuove Tecnologie, L'Energia E Lo …, priority 2017, dated 2019):

Tests used:
[1] = tested on: Crocus sativus CsABCC2 transporter (SEQ ID NO 14); test: In vitro transport assay ("transportomics") with yeast microsomes, inhibition by Probenecid; type: biochemical; conditions: Probenecid 1 mM, microsomes pre-incubated 10 minutes at room temperature; saffron hydroalcoholic extract as substrate; net ATP-dependent transport after 15 minutes; S. cerevisiae ybt1 microsomes
Procedure: (§1) A new in vitro assay was prepared, differing from the classical transportation assay wherein the vesicles are left to incubate for pre-established periods of time with the putative substrate, washed, lysed and the content analysed by liquid chromatography coupled to a UV/visible detector. With respect to the works existing in literature relating the in-vitro functional characterization of transporters, the present invention introduces the concept of "transportomics": the assay is based upon the transportation analysis, performed by LC-HRMS, of all molecules existing in the saffron extract. This approach, providing the use of a raw extract instead of commercial purified standards, allows to characterize the transportation even of molecules which are not commercially available; moreover, as it is based upon data obtained with high resolution mass spectrometry, rather than with photodiode series detector (PDA), the system is extremely sensitive and it allows to appreciate the transportation of low abundant metabolites.
(§2) With this method, then, it was observed that the two ABCC transporters are capable of transporting different crocins apart from some flavonoids (figure 10b, black bars). […]

[2] = tested on: Crocus sativus CsABCC1 transporter (SEQ ID NO 12); test: as above; type: biochemical; conditions: Probenecid 1 mM, microsomes pre-incubated 10 minutes at room temperature; saffron hydroalcoholic extract as substrate; net ATP-dependent transport after 15 minutes; S. cerevisiae ybt1 microsomes
Procedure: as §1, §2

SMILES: CCCN(CCC)S(=O)(=O)c1ccc(C(=O)O)cc1 [Probenecid]
- transportation of saffron metabolites (crocins) in presence of Probenecid inhibitor [1]: considerable transportation reduction
- transportation of saffron metabolites (crocins) in presence of Probenecid inhibitor [2]: considerable transportation reduction
